Legend:
[1] = system: pollen beetles; assay: B.3 field trial, control of pollen beetle in oilseed rape, extremely high pest pressure (vs lambda cyhalothrin and thiacloprid); type: in vivo, Meligethes; settings: foliar
Protocol: A third field trial (randomized complete block) was carried out on oilseed rape, which had reached crop stage BBCH 55 (new growth with 30 to 60 cm height; flower buds, open flowers, some small seed pods formed) and which was under attack by actively foraging pollen beetles (adult beetles: 10 beetle/flower cluster). The active ingredient pymetrozine ((E)-4,5-dihydro-6-methyl-4-(3-pyridylmethyleneamino)-1,2,4-triazin-3(2H)-one; formulated as Plenum 50% WG) was tested at rates of 50, 100 and 150 g ai/ha and compared to the activity of lambda cyhalothrin (7.5 g ai/ha) and thiacloprid (72 g ai/ha). Foliar application of the compounds under test was effected using a conventional spray boom and a volume of 400 L/ha. The degree of pest control was assessed pre-spray, and compared to that observed 2 hours, 1, 3 and 5 days after application.

[2] = system: pyrethroid resistant Pollen Beetle; assay: B.5 three field trials, control of pyrethroid resistant pollen beetle in oilseed rape; type: in vivo, Meligethes; settings: foliar
Protocol: Three further field trials (randomized complete block, 25 plants per plot) were carried out on oilseed rape, which had reached crop stage BBCH 57-63 and which was under attack by actively foraging pollen beetles (adult beetles: average of 27 adult beetles/plot). The active ingredient pymetrozine ((E)-4,5-dihydro-6-methyl-4-(3-pyridylmethylene-amino)-1,2,4-triazin-3(2H)-one; formulated as Plenum 50% WG) was tested at rates of 75, 100 and 150 g ai/ha and compared to the activity of lambda cyhalothrin (7.5 g ai/ha) and thiacloprid (72 g ai/ha). Foliar application of the compounds under test was effected using a conventional spray boom and a volume of 300 L/ha. The degree of pest control was assessed pre-spray, and compared to that observed 1, 4 and 7 days after application.

[3] = system: pyrethroid resistant Pollen Beetle; assay: B.4 field trial, control of pyrethroid resistant pollen beetle in oilseed rape; type: in vivo, Meligethes
Protocol: A further field trial (randomized complete block, 30 racemes per plot) was carried out on oilseed rape, which had reached crop stage BBCH 57-59 (individual flower buds—secondary inflorescence—visible but still closed) and which was under attack by actively foraging pollen beetles (adult beetles: average of 30 adult beetles/plot). The active ingredient pymetrozine ((E)-4,5-dihydro-6-methyl-4-(3-pyridylmethylene-amino)-1,2,4-triazin-3(2H)-one; formulated as Plenum 50% WG) was tested at rates of 50, 100 and 150 g ai/ha and compared to the activity of lambda cyhalothrin (7.5 g ai/ha) and thiacloprid (72 g ai/ha). Foliar application of the compounds under test was effected using a conventional spray boom and a volume of 500 L/ha. The degree of pest control was assessed pre-spray, and compared to that observed 1 and 3 days after application.

[4] = system: pollen beetles; assay: B.2 unreplicated field test, control of pollen beetle in winter oilseed rape (vs lambda-cyhalothrin); type: in vivo, Meligethes; settings: for % Control 1DAA: foliar
Protocol: An unreplicated field test was carried out on Winter oilseed rape, (crop stage BBCH 55) and which was under attack by actively foraging pollen beetles (adult beetles: 2.32 beetle/flower cluster). The active ingredient pymetrozine ((E)-4,5-dihydro-6-methyl-4-(3-pyridylmethyleneamino)-1,2,4-triazin-3(2H)-one; formulated as Chess 50% WG) was tested at rates of 12.5, 50 and 200 g ai/ha and compared to the activity of lambda-cyhalothrin (formulated as Karate Zeon 10CS) at 5 g ai/ha. Foliar application of the compounds under test was effected using a conventional spray boom. The degree of pest infestation was assessed pre-spray (average of 2.3 adult pollen beetles per flower cluster in the check plot) and compared to that observed 1day after application.

[5] = system: pollen beetles; assay: B.1 field trial, control of pollen beetle in winter oilseed rape (vs Lavender oil and Quassan 30); type: in vivo, Meligethes; settings: foliar
Protocol: A randomized complete block field trial was carried out on winter oilseed rape, which had reached crop stage BBCH 55 (flower buds, open flowers, some small seed pods formed) and which was under attack by actively foraging pollen beetles (adult beetles: 1 beetle/flower cluster). The active ingredient pymetrozine ((E)-4,5-dihydro-6-methyl-4-(3-pyridylmethyleneamino)-1,2,4-triazin-3(2H)-one; formulated as Plenum 50% WG) was tested at rates of 50 and 150 g ai/ha and compared to the activity of Lavender oil (at rates of 1000 g ai/ha and 2500 g ai/ha) and Quassia amara extract (Quassan 30; applied at rates of 30, 90 and 270 g ai/ha). Foliar application of the compounds under test was effected using a conventional spray boom and a volume of 500 L/ha. The degree of pest control was assessed pre-spray, and compared to that observed 1, 3 and 5 days after application.

[6] = system: insects from the Carabidae family; settings: Sechser et al. 2002 J. Pest Science 75:72-77; cited from earlier work
[7] = system: insects from the Coccinellidae family; settings: Sechser et al. 2002 J. Pest Science 75:72-77; cited from earlier work
[8] = system: insects from the Staphylinidae family; settings: Sechser et al. 2002 J. Pest Science 75:72-77; cited from earlier work

CC1(C)[C@H](C(=O)O[C@H](C#N)c2cccc(Oc3ccccc3)c2)[C@@H]1/C=C(\Cl)C(F)(F)F (racemic) [Lambda cyhalothrin]
% Control ([1]; 7.5 g ai/ha, 1 DAA): 75%
% Control ([1]; 7.5 g ai/ha, 3 DAA): 92%
% Control ([1]; 7.5 g ai/ha, 5 DAA): 23%
% Control ([1]; 7.5 g ai/ha, 2 hrs aa): 63.4%
Mean % Control ([2]; 7.5 g ai/ha, 1 DAA): 33.0%
Mean % Control ([2]; 7.5 g ai/ha, 4 DAA): 20.0%
Mean % Control ([2]; 7.5 g ai/ha, 7 DAA): 18.1%
% Control ([3]; 7.5 g ai/ha, foliar, 1 DAA): 73%
% Control ([3]; 7.5 g ai/ha, foliar, 3 DAA): 60%
level of control (in words) ([3]; recommended field rate (7.5 g ai/ha)): low level of control
% Control 1DAA ([4]; 5 g ai/ha, 1DAA): 100%

N#C/N=C1\SCCN1Cc1ccc(Cl)nc1 [Thiacloprid]
% Control ([1]; 72 g ai/ha, 1 DAA): 67%
% Control ([1]; 72 g ai/ha, 3 DAA): 92%
% Control ([1]; 72 g ai/ha, 5 DAA): 0%
% Control ([1]; 72 g ai/ha, 2 hrs aa): 39.9%
Mean % Control ([2]; 72 g ai/ha, 1 DAA): 74.7%
Mean % Control ([2]; 72 g ai/ha, 4 DAA): 92.5%
Mean % Control ([2]; 72 g ai/ha, 7 DAA): 78.3%
% Control ([3]; 72 g ai/ha, foliar, 1 DAA): 63%
% Control ([3]; 72 g ai/ha, foliar, 3 DAA): 94%

CC1=NNC(=O)N(N=Cc2cccnc2)C1 [Pymetrozine, 4,5-dihydro-6-methyl-4-(3-pyridylmethyleneamino)-1,2,4-triazin-3(2H)-one]
% Control ([1]; 50 g ai/ha, 1 DAA): 19%
% Control ([1]; 50 g ai/ha, 3 DAA): 44%
% Control ([1]; 50 g ai/ha, 5DAA): 0%
% Control ([1]; 50 g ai/ha, 2 hrs aa): 37.3%
% Control ([1]; 100 g ai/ha, 1 DAA): 61%
% Control ([1]; 100 g ai/ha, 3 DAA): 77%
% Control ([1]; 100 g ai/ha, 5 DAA): 0%
% Control ([1]; 100 g ai/ha, 2 hrs aa): 39.9%
% Control ([1]; 150 g ai/ha, 1 DAA): 61%
% Control ([1]; 150 g ai/ha, 3 DAA): 84%
% Control ([1]; 150 g ai/ha, 5DAA): 0%
% Control ([1]; 150 g ai/ha, 2 hrs aa): 42.5%
Mean % Control ([2]; 75 g ai/ha, 1 DAA): 89.9%
Mean % Control ([2]; 75 g ai/ha, 4 DAA): 72.4%
Mean % Control ([2]; 75 g ai/ha, 7 DAA): 92.8%
Mean % Control ([2]; 100 g ai/ha, 1 DAA): 87.2%
Mean % Control ([2]; 100 g ai/ha, 4 DAA): 72.9%
Mean % Control ([2]; 100 g ai/ha, 7 DAA): 92.8%
Mean % Control ([2]; 150 g ai/ha, 1 DAA): 95.2%
Mean % Control ([2]; 150 g ai/ha, 4 DAA): 77.4%
Mean % Control ([2]; 150 g ai/ha, 7 DAA): 91.3%
% Control ([3]; 3DAA, rates 50, 100 and 150 g ai/ha): > 90%
% Control ([3]; 50 g ai/ha, foliar, 1 DAA): 60%
% Control ([3]; 50 g ai/ha, foliar, 3 DAA): 96%
% Control ([3]; 100 g ai/ha, foliar, 1 DAA): 62%
% Control ([3]; 100 g ai/ha, foliar, 3 DAA): 97%
% Control ([3]; 150 g ai/ha, foliar, 1 DAA): 78%
% Control ([3]; 150 g ai/ha, foliar, 3 DAA): 96%
Percentage Control ([5]; 50 g ai/ha, 1 DAA): 90%
Percentage Control ([5]; 50 g ai/ha, 3 DAA): 98%
Percentage Control ([5]; 50 g ai/ha, 5DAA): 99%
Percentage Control ([5]; 150 g ai/ha, 1 DAA): 86%
Percentage Control ([5]; 150 g ai/ha, 3 DAA): 92%
Percentage Control ([5]; 150 g ai/ha, 5DAA): 95%
% Control 1DAA ([4]; 12.5 g ai/ha, 1DAA): 90%
% Control 1DAA ([4]; 50 g ai/ha, 1 DAA): 98%
% Control 1DAA ([4]; 200 g ai/ha, 1DAA): 100%
control of Meligethes (in words) ([4]; at all rates (12.5, 50, 200 g ai/ha), 1DAA): excellent control
effect on insects (in words) [6]: no effect
effect on insects (in words) [7]: no effect
effect on insects (in words) [8]: no effect

— patent US8455487B2, “Methods of controlling insects” (Syngenta Participations AG, priority 2007, dated 2013)
